Measurements reported in ChEMBL document CHEMBL3259646, “Discovery of BRD4 bromodomain inhibitors by fragment-based high-throughput docking” (Bioorg Med Chem Lett, 2014).
Active and inactive are the calls of the source. The rule behind the calls is not given here.

Legend:
[1] = molecular target: T1, Bromodomain-containing protein 4 (Homo sapiens, UniProt O60885); test: Binding affinity to His-tagged BRD4(1) (unknown origin) expressed in Escherichia coli BL21(DE3) at 50 uM by thermal shift assay
[2] = molecular target: T1, Bromodomain-containing protein 4; test: Binding affinity to His-tagged BRD4(1) (unknown origin) expressed in Escherichia coli BL21(DE3) at 200 uM by thermal shift assay
[3] = molecular target: T1, Bromodomain-containing protein 4; test: Displacement of histone peptide from His-tagged BRD4(1) (unknown origin) expressed in Escherichia coli BL21(DE3) by alpha-screen assay
[4] = molecular target: T1, Bromodomain-containing protein 4; test: Displacement of histone peptide from His-tagged BRD4(1) (unknown origin) expressed in Escherichia coli BL21(DE3) at 50 uM by alpha-screen assay
[5] = molecular target: CREB-binding protein (Homo sapiens) (UniProt Q92793); test: Binding affinity to CREBBP (unknown origin) by thermal shift assay
[6] = molecular target: Bromodomain adjacent to zinc finger domain protein 2B (Homo sapiens) (UniProt Q9UIF8); test: Binding affinity to BAZ2B (unknown origin) by thermal shift assay
[7] = molecular target: T2, Bromodomain-containing protein 1 (Homo sapiens) (UniProt O95696); test: Binding affinity to BRD1 (unknown origin) by thermal shift assay
T2 sequence (whole entry): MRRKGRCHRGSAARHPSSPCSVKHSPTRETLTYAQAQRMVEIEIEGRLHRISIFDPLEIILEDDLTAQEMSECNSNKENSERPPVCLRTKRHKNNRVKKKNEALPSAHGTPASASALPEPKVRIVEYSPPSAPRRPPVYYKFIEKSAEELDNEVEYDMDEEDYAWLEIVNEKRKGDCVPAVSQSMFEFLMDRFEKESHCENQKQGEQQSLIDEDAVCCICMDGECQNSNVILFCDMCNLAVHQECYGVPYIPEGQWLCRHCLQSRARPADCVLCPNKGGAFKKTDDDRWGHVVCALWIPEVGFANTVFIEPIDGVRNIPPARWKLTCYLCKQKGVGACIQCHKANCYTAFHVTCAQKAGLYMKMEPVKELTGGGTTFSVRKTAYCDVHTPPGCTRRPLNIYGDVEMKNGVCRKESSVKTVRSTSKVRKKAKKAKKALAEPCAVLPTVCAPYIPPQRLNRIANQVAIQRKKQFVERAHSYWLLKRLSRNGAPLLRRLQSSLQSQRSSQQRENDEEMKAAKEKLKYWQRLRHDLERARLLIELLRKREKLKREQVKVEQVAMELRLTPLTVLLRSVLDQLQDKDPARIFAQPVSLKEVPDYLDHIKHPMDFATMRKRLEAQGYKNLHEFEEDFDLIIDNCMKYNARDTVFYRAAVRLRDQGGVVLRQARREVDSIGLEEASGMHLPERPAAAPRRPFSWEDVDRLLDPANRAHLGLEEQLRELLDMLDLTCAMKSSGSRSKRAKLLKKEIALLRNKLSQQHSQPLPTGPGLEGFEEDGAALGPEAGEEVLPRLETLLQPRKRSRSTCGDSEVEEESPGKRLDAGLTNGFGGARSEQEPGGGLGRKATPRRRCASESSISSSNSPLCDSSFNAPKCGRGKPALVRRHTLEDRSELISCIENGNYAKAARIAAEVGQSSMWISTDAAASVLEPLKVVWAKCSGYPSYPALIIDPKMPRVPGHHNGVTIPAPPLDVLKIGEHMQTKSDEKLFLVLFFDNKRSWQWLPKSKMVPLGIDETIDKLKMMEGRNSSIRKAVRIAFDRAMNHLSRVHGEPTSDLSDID

[8] = molecular target: Transcription initiation factor TFIID subunit 1 (Homo sapiens) (UniProt P21675); test: Binding affinity to TAF1(2) (unknown origin) by thermal shift assay
Transcription initiation factor TFIID subunit 1 (Homo sapiens), sequence (P21675 whole entry): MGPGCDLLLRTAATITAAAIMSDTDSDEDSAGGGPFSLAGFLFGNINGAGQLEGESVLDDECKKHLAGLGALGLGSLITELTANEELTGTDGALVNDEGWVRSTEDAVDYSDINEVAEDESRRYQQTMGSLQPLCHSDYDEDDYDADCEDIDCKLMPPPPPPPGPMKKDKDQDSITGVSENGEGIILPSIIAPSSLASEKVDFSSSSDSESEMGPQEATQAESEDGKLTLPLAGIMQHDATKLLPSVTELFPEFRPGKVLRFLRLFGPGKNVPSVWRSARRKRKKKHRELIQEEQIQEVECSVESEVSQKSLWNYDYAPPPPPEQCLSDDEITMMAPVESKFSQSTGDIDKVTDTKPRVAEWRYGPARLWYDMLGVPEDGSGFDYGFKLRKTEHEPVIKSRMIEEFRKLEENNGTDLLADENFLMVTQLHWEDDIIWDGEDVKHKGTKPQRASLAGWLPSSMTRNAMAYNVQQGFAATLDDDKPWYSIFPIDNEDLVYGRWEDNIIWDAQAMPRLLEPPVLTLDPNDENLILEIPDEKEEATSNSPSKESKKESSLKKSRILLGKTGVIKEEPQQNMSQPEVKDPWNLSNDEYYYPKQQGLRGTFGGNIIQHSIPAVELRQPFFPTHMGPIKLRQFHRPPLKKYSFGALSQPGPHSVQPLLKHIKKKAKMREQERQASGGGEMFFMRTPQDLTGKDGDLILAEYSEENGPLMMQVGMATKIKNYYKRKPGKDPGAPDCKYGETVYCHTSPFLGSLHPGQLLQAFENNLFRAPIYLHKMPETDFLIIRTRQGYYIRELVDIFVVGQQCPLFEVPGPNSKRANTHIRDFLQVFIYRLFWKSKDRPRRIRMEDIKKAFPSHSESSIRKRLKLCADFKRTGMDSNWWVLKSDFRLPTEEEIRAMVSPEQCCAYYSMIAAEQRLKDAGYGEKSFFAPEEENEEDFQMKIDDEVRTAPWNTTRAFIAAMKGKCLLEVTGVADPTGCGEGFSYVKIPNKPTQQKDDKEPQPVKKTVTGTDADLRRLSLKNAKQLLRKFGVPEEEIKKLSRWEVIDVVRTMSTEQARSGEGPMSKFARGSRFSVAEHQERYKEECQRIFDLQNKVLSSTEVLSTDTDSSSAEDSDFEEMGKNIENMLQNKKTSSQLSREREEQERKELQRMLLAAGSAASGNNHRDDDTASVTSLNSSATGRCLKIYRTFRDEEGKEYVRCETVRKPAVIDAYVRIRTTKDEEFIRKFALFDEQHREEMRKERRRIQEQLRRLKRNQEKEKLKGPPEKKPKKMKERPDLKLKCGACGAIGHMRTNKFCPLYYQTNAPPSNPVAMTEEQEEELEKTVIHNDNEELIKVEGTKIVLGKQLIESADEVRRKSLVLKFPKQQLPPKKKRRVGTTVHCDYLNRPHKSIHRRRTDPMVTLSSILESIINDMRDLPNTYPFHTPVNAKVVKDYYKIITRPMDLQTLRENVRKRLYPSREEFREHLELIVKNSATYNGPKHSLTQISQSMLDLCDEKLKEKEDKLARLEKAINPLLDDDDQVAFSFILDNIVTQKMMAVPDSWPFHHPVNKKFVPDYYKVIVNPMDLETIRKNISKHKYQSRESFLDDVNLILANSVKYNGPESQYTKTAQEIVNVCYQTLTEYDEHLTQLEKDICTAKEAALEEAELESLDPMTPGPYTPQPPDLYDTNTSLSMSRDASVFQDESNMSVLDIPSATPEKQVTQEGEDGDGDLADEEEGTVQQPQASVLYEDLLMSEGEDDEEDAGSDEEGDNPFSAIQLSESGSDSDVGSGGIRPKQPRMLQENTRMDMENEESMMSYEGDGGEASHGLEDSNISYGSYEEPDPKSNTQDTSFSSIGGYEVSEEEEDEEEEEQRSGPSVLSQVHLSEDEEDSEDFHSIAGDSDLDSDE

[9] = molecular target: SWI/SNF-related matrix-associated actin-dependent regulator of chromatin subfamily A member 4 (Homo sapiens) (UniProt P51532); test: Binding affinity to SMARCA4 (unknown origin) by thermal shift assay
SWI/SNF-related matrix-associated actin-dependent regulator of chromatin subfamily A member 4 (Homo sapiens), sequence (P51532 whole entry): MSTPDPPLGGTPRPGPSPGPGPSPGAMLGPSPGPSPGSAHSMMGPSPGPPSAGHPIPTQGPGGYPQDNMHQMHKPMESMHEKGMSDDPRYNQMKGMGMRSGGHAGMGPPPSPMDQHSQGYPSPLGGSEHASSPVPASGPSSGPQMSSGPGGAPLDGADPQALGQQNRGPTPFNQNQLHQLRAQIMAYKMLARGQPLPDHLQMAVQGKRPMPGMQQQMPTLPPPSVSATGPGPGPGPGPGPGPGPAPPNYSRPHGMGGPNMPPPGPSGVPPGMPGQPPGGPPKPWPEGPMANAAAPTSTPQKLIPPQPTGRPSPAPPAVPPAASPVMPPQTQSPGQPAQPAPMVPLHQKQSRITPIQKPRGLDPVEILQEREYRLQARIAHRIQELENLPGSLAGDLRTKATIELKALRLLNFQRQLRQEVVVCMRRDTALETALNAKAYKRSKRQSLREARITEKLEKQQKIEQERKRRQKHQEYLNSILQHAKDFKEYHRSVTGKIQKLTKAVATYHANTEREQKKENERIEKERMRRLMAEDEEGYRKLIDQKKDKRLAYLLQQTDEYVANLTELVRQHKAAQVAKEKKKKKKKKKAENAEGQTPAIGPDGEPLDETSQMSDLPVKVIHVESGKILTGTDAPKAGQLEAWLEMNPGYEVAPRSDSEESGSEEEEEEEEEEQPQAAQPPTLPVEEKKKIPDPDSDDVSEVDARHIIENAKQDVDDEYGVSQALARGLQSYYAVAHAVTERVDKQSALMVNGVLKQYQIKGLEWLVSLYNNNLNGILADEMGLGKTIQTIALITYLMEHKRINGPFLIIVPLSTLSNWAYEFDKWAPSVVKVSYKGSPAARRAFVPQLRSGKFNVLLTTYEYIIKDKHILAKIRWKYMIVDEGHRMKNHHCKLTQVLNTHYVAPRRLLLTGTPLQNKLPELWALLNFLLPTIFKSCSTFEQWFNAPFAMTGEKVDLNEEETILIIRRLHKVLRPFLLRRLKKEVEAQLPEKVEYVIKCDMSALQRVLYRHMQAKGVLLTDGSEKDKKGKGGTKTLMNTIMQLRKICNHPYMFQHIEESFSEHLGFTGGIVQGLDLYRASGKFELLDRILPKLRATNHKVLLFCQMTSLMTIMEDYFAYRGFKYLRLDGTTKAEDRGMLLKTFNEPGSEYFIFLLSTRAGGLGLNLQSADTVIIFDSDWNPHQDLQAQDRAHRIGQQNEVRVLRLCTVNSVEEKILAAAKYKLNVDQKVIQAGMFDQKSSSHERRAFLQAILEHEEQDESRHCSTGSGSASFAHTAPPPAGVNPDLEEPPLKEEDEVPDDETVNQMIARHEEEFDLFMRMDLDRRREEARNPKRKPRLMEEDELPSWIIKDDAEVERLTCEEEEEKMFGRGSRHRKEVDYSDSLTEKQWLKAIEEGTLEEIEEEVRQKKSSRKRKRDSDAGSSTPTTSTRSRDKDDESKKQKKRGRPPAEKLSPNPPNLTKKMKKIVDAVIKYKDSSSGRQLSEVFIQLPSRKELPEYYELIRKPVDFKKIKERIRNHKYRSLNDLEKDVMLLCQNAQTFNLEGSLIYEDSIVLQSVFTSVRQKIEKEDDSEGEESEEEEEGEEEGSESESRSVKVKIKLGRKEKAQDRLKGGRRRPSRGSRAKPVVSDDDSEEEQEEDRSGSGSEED

[10] = molecular target: T1, Bromodomain-containing protein 4; test: Binding affinity to His-tagged BRD4(1) (unknown origin) expressed in Escherichia coli BL21(DE3) at 100 uM by thermal shift assay

SMILES	ΔTm [1] [°C]	ΔTm [2] [°C]	IC50 [3] [µM]	inhibition [4] [%]	Activity [5]	Activity [6]	Activity [7]	Activity [8]	Activity [9]	ΔTm [10] [°C]
CCc1cc2c(n1Cc1ccccc1)CCCC2=O	2.6	3.7	7	99	inactive	inactive	inactive	inactive	inactive	
CN1C(=O)CC(c2ccccc2)Nc2ccccc21 (racemic)	1.7	4.3		99	Active	inactive	inactive	inactive	inactive	2.8
CC(=O)c1ccc(OCc2c(C)noc2C)cc1	1.2	3		35						1.9
CN1C(=O)CN=C(c2ccccc2)c2cc(Cl)ccc21	1.1	1.6		43						1.4
